Measurements as given in patent US20240108683A1, “Method for Side Effect Reduction in the Use of Statins Via Physiologically Synthesized Glutathione” (Proimmune Co. LLC, priority 2014, published 2024).

What was measured:
[1] = as compared to L-cysteine; cited from earlier work
[2] = system: oxidized lipid products; experiment: Human clinical trial, scavenging of oxidized lipid products; assay type: in vivo
Source text: Moreover, the pharmacological effect of the composition of the instant invention as a replacement of the statin model was unexpected. […] Reason: the instant invention physiologically provides more rate-limiting L-cysteine available in the cell together with the other constituents of glutathione.

Row | Structure (SMILES) | water solubility [1] | scavenging of oxidized lipid products [2]
1 | N[C@@H](CSSC[C@H](N)C(=O)O)C(=O)O [L-cystine] | water insoluble | –
2 | CC(=O)N[C@@H](CS)C(=O)O [N-acetylcysteine] | – | 1%
